Here are results for 20 compounds from patent US9067891B2, “1,4-disubstituted 3-cyano-pyridone derivatives and their use as positive allosteric modulators of mGluR2-receptors” (JANSSEN PHARMACEUTICALS, INC., priority 2007, dated 2015).

Several values for one entry are separate records, joined by “and”; a condition that tells them apart may be missing. Equal entries are not always repeated.

In series [1] the target is T1, human mGluR2 receptor (Homo sapiens, UniProt Q14416).
T1 construct: expressed in transfected cells; host or cells: CHO cells (membrane preparation)
T1 sequence (Q14416 19-872): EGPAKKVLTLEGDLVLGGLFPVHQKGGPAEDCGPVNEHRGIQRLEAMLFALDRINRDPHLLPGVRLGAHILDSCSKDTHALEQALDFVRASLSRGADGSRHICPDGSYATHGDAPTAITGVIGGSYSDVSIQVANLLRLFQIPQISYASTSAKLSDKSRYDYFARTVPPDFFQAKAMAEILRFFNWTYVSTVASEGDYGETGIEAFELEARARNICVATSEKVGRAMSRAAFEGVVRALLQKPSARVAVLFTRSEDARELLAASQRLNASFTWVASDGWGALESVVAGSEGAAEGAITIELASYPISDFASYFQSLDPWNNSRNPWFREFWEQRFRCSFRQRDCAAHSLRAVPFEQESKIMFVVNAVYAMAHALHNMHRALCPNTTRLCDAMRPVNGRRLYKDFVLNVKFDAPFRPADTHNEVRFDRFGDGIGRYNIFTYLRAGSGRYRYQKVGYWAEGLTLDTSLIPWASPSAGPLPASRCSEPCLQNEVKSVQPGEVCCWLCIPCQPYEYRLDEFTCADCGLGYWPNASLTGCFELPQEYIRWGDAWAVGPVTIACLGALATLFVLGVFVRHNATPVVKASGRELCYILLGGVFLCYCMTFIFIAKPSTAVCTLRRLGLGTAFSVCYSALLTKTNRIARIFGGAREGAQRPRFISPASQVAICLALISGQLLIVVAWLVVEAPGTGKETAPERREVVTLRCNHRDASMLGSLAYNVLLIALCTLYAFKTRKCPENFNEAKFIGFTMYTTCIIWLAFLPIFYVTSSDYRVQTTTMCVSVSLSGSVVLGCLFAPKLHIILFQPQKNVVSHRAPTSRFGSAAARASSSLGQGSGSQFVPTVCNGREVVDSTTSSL
Nature of the series: [35S]GTPγS binding assay (GTPγS-PAM), membranes from CHO cells transfected with human mGluR2. In kind it is biochemical. The conditions noted are these: positive allosteric modulation in presence of glutamate at predetermined EC25 concentration, averages of duplicate values of 11-concentration response curves, pEC50 = -logEC50, error about 0.3 log-units; for EC50: read-out: GTPgS - hR2 PAM pEC50 (converted). The text has this: The compounds provided in the present invention are positive allosteric modulators of mGluR2. These compounds appear to potentiate glutamate responses by binding to an allosteric site other than the glutamate binding site. The response of mGluR2 to a concentration of glutamate is increased when compounds of formula (I) are present. Compounds of formula (I) are expected to have their effect substantially at mGluR2 by virtue of their ability to enhance the function of the receptor. The behaviour of positive allosteric modulators tested at mGluR2 using the [^35S]GTPγS binding assay method described below and which is suitable for the identification of such compounds, and more particularly the compounds according to formula (I), are shown in Table 3.
[^35S]GTPγS Binding Assay
The [^35S]GTPγS binding assay is a functional membrane-based assay used to study G-protein coupled receptor (GPCR) function whereby incorporation of a non-hydrolysable form of GTP, [^35S]GTPγS (guanosine 5′-triphosphate, labelled with […] ^35S), is measured. The G-protein […] catalyzes the exchange of guanosine 5′-diphosphate (GDP) by guanosine triphosphate (GTP) and on activation of the GPCR by an agonist, [^35S]GTPγS, becomes incorporated and cannot be cleaved to continue the exchange cycle (Harper (1998) Current Protocols in Pharmacology 2.6.1-10, John Wiley & Sons, Inc.). […] Here we describe the use of the [^35S]GTPγS binding assay using membranes from cells transfected with the human mGluR2 receptor and adapted from Sehaffhauser et al ((2003) Molecular Pharmacology 4:798-810) for the detection of the positive allosteric modulation (PAM) properties of the compounds of this invention.
CHO-cells were cultured to pre-confluence and stimulated with 5 mM butyrate for 24 hours, prior to washing in PBS, and then collection by scraping in homogenisation buffer (50 mM Tris-HCl buffer, pH 7.4, 4° C.). Cell lysates were homogenized briefly (15 s) using an ultra-turrax homogenizer. The homogenate was centrifuged at 23 500×g for 10 minutes and the supernatant discarded. The pellet was resuspended in 5 mM Tris-HCl, pH 7.4 and centrifuged again (30 000×g, 20 min, 4° C.). The final pellet was resuspended in 50 mM HEPES, pH 7.4 and stored at −80° C. in appropriate aliquots before use. Protein concentration was determined by the Bradford method (Bio-Rad, USA) with bovine serum albumin as standard.
Measurement of mGluR2 positive allosteric modulatory activity of test compounds in membranes containing human mGluR2 was performed using frozen membranes that were thawed and briefly homogenised prior to pre-incubation in 96-well microplates (15 μg/assay well, 30 minutes, 30° C.) in assay buffer (50 mM HEPES pH 7.4, 100 mM NaCl, 3 mM MgCl2, 50 μM GDP, 10 μg/ml saponin,) with increasing concentrations of positive allosteric modulator (from 0.3 nM to 50 μM) and either a minimal pre-determined concentration of glutamate (PAM assay), or no added glutamate. For the PAM assay, membranes were pre-incubated with glutamate at EC25 concentration, i.e. a concentration that gives 25% of the maximal response glutamate, and is in accordance to published data (Pin et al. (1999) Eur. J. Pharmacol. 375:277-294). After addition of [^35S]GTPγS (0.1 nM, f.c.) to achieve a total reaction volume of 200 μl, microplates were shaken briefly and further incubated to allow [^35S]GTPγS incorporation on activation (30 minutes, 30° C.). The reaction was stopped by rapid vacuum filtration over glass-fibre filter plates (Unifilter 96-well GF/B filter plates, Perkin-Elmer, Downers Grove, USA) microplate using a 96-well plate cell harvester (Filtermate, Perkin-Elmer, USA), and then by washing three times with 300 μl of ice-cold wash buffer (Na2PO4.2H20 10 mM, NaH2PO4.H20 10 mM, pH=7.4). […]

The melting point is the temperature of the solid-liquid transition. The compound `Cc1cc(C)nc(Oc2ccc(-c3ccn(CC4CC4)c(=O)c3C#N)c(F)c2)c1` [Compound 1, 1-Cyclopropylmethyl-4-[4-(4,6-dimethyl-pyridin-2-yloxy)-2-fluoro-phenyl]-2-oxo-1,2-dihydro-pyridine-3-carbonitrile] registered a melting point of 137 °C. Besides, in series [1], the EC50 was 0.813 µM. The like results for `CCCCn1ccc(-c2ccc(Oc3ccc(C)nc3C)c(F)c2)c(C#N)c1=O` [Compound 2, 1-Butyl-4-[4-(2,6-dimethyl-pyridin-3-yloxy)-3-fluoro-phenyl]-2-oxo-1,2-dihydro-pyridine-3-carbonitrile] were, in that order, 156.4 °C and 0.138 µM.

`Cc1ccc(Oc2ccc(-c3ccn(CC4CC4)c(=O)c3C#N)cc2F)c(C)n1` [Compound 3, 1-Cyclopropylmethyl-4-[4-(2,6-dimethyl-pyridin-3-yloxy)-3-fluoro-phenyl]-2-oxo-1,2-dihydro-pyridine-3-carbonitrile] had a melting point of 152.7 °C. Also, the EC50 in series [1] is 0.457 µM. For `CCCCn1ccc(-c2ccc(Oc3ccnc(C)c3)cc2F)c(C#N)c1=O` [Compound 4, 1-Butyl-4-[2-fluoro-4-(2-methyl-pyridin-4-yloxy)-phenyl]-2-oxo-1,2-dihydro-pyridine-3-carbonitrile], the melting point amounted to 127.1 °C. Further, in series [1], the “GTPgS - hR2 PAM pEC50” value is listed as 6.41.

Regarding `CCCCn1ccc(-c2ccc(Oc3ccnc(C)c3)c(F)c2)c(C#N)c1=O` [Compound 5, 1-Butyl-4-[3-fluoro-4-(2-methyl-pyridin-4-yloxy)-phenyl]-2-oxo-1,2-dihydro-pyridine-3-carbonitrile], the melting point is 125.2 °C and 125.4 °C. In addition, the EC50 in series [1] was 0.437 µM. Turning to `CCCCn1ccc(-c2ccc(Oc3cc(C)nc(C)c3)cc2F)c(C#N)c1=O` [Compound 6, 1-Butyl-4-[4-(2,6-dimethyl-pyridin-4-yloxy)-2-fluoro-phenyl]-2-oxo-1,2-dihydro-pyridine-3-carbonitrile], the melting point is 169.9 °C. Also, the EC50 in series [1] was 0.437 µM. For `CCCCn1ccc(-c2ccc(Oc3cc(C)nc(C)c3)c(F)c2)c(C#N)c1=O` [Compound 7, 1-Butyl-4-[4-(2,6-dimethyl-pyridin-4-yloxy)-3-fluoro-phenyl]-2-oxo-1,2-dihydro-pyridine-3-carbonitrile], the EC50 in series [1] is 0.347 µM. For the compound `Cc1cc(Oc2ccc(-c3ccn(CC4CC4)c(=O)c3C#N)c(F)c2)cc(C)n1` [Compound 8, 1-Cyclopropylmethyl-4-[4-(2,6-dimethyl-pyridin-4-yloxy)-2-fluoro-phenyl]-2-oxo-1,2-dihydro-pyridine-3-carbonitrile], the EC50 in series [1] was 0.794 µM.

For `Cc1cc(Oc2ccc(-c3ccn(CC4CC4)c(=O)c3C#N)cc2F)cc(C)n1` [Compound 9, 1-Cyclopropylmethyl-4-[4-(2,6-dimethyl-pyridin-4-yloxy)-3-fluoro-phenyl]-2-oxo-1,2-dihydro-pyridine-3-carbonitrile], the melting point came out at 201.2 °C. Moreover, the EC50 in series [1] was 0.708 µM. With `Cc1nccc(Oc2ccc(-c3ccn(CC4CC4)c(=O)c3C#N)c(F)c2)c1C` [Compound 10, 1-Cyclopropylmethyl-4-[4-(2,3-dimethyl-pyridin-4-yloxy)-2-fluoro-phenyl]-2-oxo-1,2-dihydro-pyridine-3-carbonitrile], in series [1], the EC50 is 0.372 µM. Still for that read-out and setting: as for `Cc1nccc(Oc2ccc(-c3ccn(CC4CC4)c(=O)c3C#N)cc2F)c1C` [Compound 11, 1-Cyclopropylmethyl-4-[4-(2,3-dimethyl-pyridin-4-yloxy)-3-fluoro-phenyl]-2-oxo-1,2-dihydro-pyridine-3-carbonitrile], the figure is 0.676 µM. Compound `CCCCn1ccc(-c2ccc(Oc3cccnc3C)c(F)c2)c(C#N)c1=O` [Compound 12] came in with a melting point of 104.8 °C. Further, the EC50 in series [1] was 0.537 µM. Take `Cc1cc(Oc2ccc(-c3ccn(CCC4CC4)c(=O)c3C#N)c(F)c2)ccn1` [Compound 13]: the melting point turned out to be 110.7 °C. Further, the EC50 in series [1] was 0.417 µM. Consider `Cc1ncccc1Oc1ccc(-c2ccn(CCC3CC3)c(=O)c2C#N)cc1F` [Compound 14], for which the melting point was 145.8 °C. For the same compound, the EC50 in series [1] is 0.38 µM. In the case of `CCCCn1ccc(-c2cc(F)c(Oc3ccnc(C)c3)c(F)c2)c(C#N)c1=O` [Compound 15], the melting point was 172.2 °C. Also, the EC50 in series [1] was 0.708 µM.

`CCCCn1ccc(-c2ccc(Oc3cccnc3C)cc2)c(C#N)c1=O` [Compound 16] showed a melting point of 136.7 °C. Moreover, the EC50 in series [1] is 0.437 µM. On to `CCCCn1ccc(-c2ccc(Oc3cc(C)ccn3)cc2)c(C#N)c1=O` [Compound 17], for which the EC50 in series [1] was 1 µM. `CCCCn1ccc(-c2ccc(Oc3ccnc(C)c3)cc2)c(C#N)c1=O` [Compound 18, 3-cyano-1-butyl-4-[4-(2-methyl-pyridin-4-yloxy)-phenyl]-pyridine-2(1H)-one] displayed a melting point of 121 °C. Regarding `N#Cc1c(-c2ccc(Oc3ccnc(Cl)c3)cc2)ccn(CC2CC2)c1=O` [Compound 19], the EC50 in series [1] was 0.158 µM.

Take `CCCCn1ccc(-c2ccc(Oc3ccncc3Cl)cc2)c(C#N)c1=O` [Compound 20]: the EC50 in series [1] was 0.631 µM.
